{
  "source": "patent US20250268834A1",
  "about": "“IONIC LIQUID SALTS OF ACTIVE PHARMACEUTICAL INGREDIENTS” (GlaxoSmithKline Consumer Healthcare Holdings (US) LLC, priority 2021, published 2025)",
  "origin": "cited, not measured here",
  "conditions": "hydrolysis of amide to 4-aminophenol in liquids",
  "data": [
    {"smiles": "CC(=O)Nc1ccc(O)cc1", "note": "[APAP, acetaminophen]", "values": [
      {"measurement": "pH with lowest hydrolysis levels of APAP", "value": "5-6"}
    ]}
  ]
}
